From patent publication US6965035B1, “Compacted forms of halogenated hydantoins” (priority 2002, dated 2005)

Legend:
Assay type in all cases: physicochemical
[1] = Dissolution of granules or tablets in swimming pool skimmer basket under recirculated pool water
Source text: A swimming pool skimmer basket was divided into two halves by means of a simple plastic partition placed across the basket diameter. One half of the basket had 50 grams of pure (wax-free) DBDMH granules placed in it. In the other half of the skimmer basket was placed 50 grams of DBDMH/1 wt % MPP-611 wax granules. […] The basket, containing both sets of granules, was introduced to the skimmer of an above-ground pool. Swimming pool water was pumped past the granules in the skimmer basket by means of the pool recirculation pump. The flow rate was around 30 gallons per minute (gpm) and the water temperature was 60° F. (15.5° C.). After 6 hours, the pump was turned off and the skimmer basket containing the partially-dissolved granules was removed. The granules were removed from their respective halves of the skimmer basket and placed in crystallizing dishes to dry overnight. Each set of granules was reweighed. The weight of the undissolved portion was subtracted from the initial weight, and the amount dissolved (the difference) was expressed in terms of % dissolved (the relative dissolution rate). Table 5 lists the relative amount dissolved for both sets of granules. The procedures described in Example 4 were repeated using pure (wax-free) DBDMH granules and DBDMH/2 wt % MPP-611 wax granules. The water temperature was 66° F. (19° C.). Table 5 lists the relative amount dissolved for both sets of granules. The skimmer basket setup described in Example 4 was used. In one half of the basket, tablets of DBDMH/3 wt % MPP-611 wax (5×24 g; total weight, 120 g; each tablet is 1 inch in diameter) were placed an equal distance apart from each other. In the other half of the basket, tablets of pure (wax-free) 1,3-bromochloro-5,5-dimethylhydantoin (BCDMH; 5×20 g; total weight, 100 g) were similarly arranged. Both sets of tablets were one inch in diameter, so the effective surface area exposed was approximately the same for each set of tablets. The skimmer basket containing the tablets was placed into the skimmer of an above-ground swimming pool. Pool water was pumped past the tablets in the skimmer basket by means of the pool recirculation pump. The flow rate was around 30 gpm, the water temperature was 82.1° F. (27.8° C.), and water was recirculated for 16 hours. The tablets were dried and re-weighed. The weight of the undissolved portion was subtracted from the initial weight, and the amount dissolved (the difference) was expressed in terms of % dissolved (the relative dissolution rate). The amount of product dissolved was 75.5 g for the BCDMH tablets and 13.4 g for the DBDMH/3 wt % MPP-611 wax tablets. The BCDMH tablets dissolved at a rate 5.6 times faster (based on weight dissolved) than the DBDMH/3 wt % MPP-611 wax tablets. Based on the respective solubility of wax-free DBDMH and BCDMH powders, a relative dissolution factor of about 2 would have been expected (with the BCDMH dissolving faster).

[2] = Peak load tolerance test of granules (Sintech 1/S compression apparatus); settings: 3.5–5 mesh cut of granules; average of ten runs; standard deviation in parentheses
Description: To minimize size effects, a 3.5–5 mesh cut of the granulated material was used in this experiment. Peak load tests were performed on DBDMH granules without wax, with 1 wt % wax, and with 2 wt % wax. The wax in both instances was micronized polyethylene wax (MPP-611). Granules of approximately the same size were selected by visual inspection; measurements of the thickness of the granules were not made because of the very irregular shapes of the granules. Peak load tolerance tests were performed utilizing a Sintech® 1/S compression apparatus (MTS Systems Corporation, Edenprairie, Minn.) equipped with Testworks software. The apparatus included a horizontal circular-shaped load cell interfaced with a computer, a digital micrometer also interfaced with the computer, and a vertical screw-driven piston disposed above the load cell and adapted to apply a downward force perpendicular to the load cell. Each granule was placed on its edge on the load cell with the piston in contact with at least a part of the upper edge of the granule. The piston often could not contact the entire upper edge of the granule due the irregular morphology of the granule. […] At the same time, the load cell continuously measured the downward force being applied to the granule, and the input of such measurements was transmitted to the computer. […]

[3] = Specific surface area of granules by nitrogen adsorption BET technique; settings: 3.5–5 mesh granules, material from recycle compaction (Runs 1–3)
Description: To minimize size effects, a 3.5–5 mesh cut of the granulated material was used in this experiment. The material used in Runs 1–3 were from recycle compaction, and the material used in Run 4 was from first-run compaction. The surface area of the granules was determined by the well-known nitrogen adsorption BET technique. The BET technique consists of (1) removing adsorbed gases from the sample with heat and vacuum, (2) adsorbing a mono-layer of nitrogen on the surface at liquid nitrogen temperature, (3) measuring the amount of adsorbed nitrogen, and (4) calculating the total surface area of the sample from an assumed cross-sectional area of nitrogen molecules. The total surface area was divided by the sample weight to yield the specific surface area. Specific surface area is defined as the exposed surface area of 1 gram of the sample tested. A Coulter Model 3100 instrument was used.

Row | Amount dissolved ([1]; 50 g granules >8 U.S. mesh, about 30 gpm, water 60° F. (15.5° C.), 6 hours (text Example 4)) [%] | Amount dissolved ([1]; 50 g granules, about 30 gpm, water 66° F. (19° C.), 6 hours (text Example 5)) [%] | Surface Area [3] [m^2/g] | Amount dissolved ([1]; 1 inch tablets, about 30 gpm, water 82.1° F. (27.8° C.), 16 hours (text Example 6)) [%] | Amount of product dissolved ([1]; tablets, 5×20 g BCDMH or 5×24 g DBDMH/wax, about 30 gpm, 82.1° F., 16 hours) [g] | Dissolution rate relative to DBDMH/3 wt % MPP-611 wax tablets (based on weight dissolved) ([1]; tablets, 82.1° F., 16 hours) [times faster] | Compound | Average peak load [2]
1 | 44 | 60 | 5.1 | – | – | – | CC1(C)C(=O)N(Br)C(=O)N1Br [DBDMH, wax-free, 1,3-dibromo-5,5-dimethylhydantoin] | 11.7 (3.4) lb.
2 | – | – | – | 75.5 | 75.5 | 5.6 | CC1(C)C(=O)N(Cl)C(=O)N1Br [BCDMH tablets (no wax), 1,3-bromochloro-5,5-dimethylhydantoin] | –
